Assay results from patent publication US20240174641A1, “HETEROCYCLIC COMPOUNDS CAPABLE OF […]” (Boehringer Ingelheim International GmbH, priority 2022, published 2024).

System: dog STING (dSTING)
Assay: Dog differential scanning fluorimetry (DSF) assay, thermal shift of dog STING protein
Type: binding
Conditions: DSF (dDSF); 100 μM compound, 3 μM dog STING protein; Tm with ligand minus Tm of protein alone
Text: The protein used for the biophysical experiments was a recombinant dog STING protein comprising its cytosolic cGAMP binding ectodomain. A codon optimized DNA sequence (for expression in Escherichia coli) encoding amino acid residues 149 to 375 of dog STING was synthesized by GeneArt (Regensburg, Germany) and inserted into a pET17b E. coli expression vector. The protein construct encodes an N-terminal 8×His-tag followed by tobacco etch virus protease (TEV) cleavage site and the above STING gene sequence. The resulting protein sequence for the used dog STING protein (SEQ ID No. 1) is listed below:
For expression of the above recombinant dog STING, the construct was transformed into E. coli BL21 DE3 strain and grown in shake flasks in LB-medium at 15° C. Expression was induced by addition of isopropyl β-D-1-thiogalactopyranoside to a final concentration of 1 mM and cultures shaken overnight. Cell pellets were centrifuged and stored at −70° C. until further use. Protein was purified by cell thawing in lysis buffer (20 mM TRIS-HCl, pH 8, 500 mM NaCl, 1 mM DTT, 0.5 mg/ml lysozyme, Complete Protease Inhibitor (Roche) and DNase (Roche)), followed by metal affinity purification using Ni-NTA resins and elution buffer consisting of 20 mM TRIS-HCl, pH 8, 500 mM NaCl, 1 mM DTT, 300 mM imidazole. Cleavage of the His-Tag using TEV-protease took place during dialysis in size exclusion buffer (20 mM TRIS-HCl, pH 8, 100 mM NaCl, 1 mM DTT) over night. To further purify the target protein a reverse Nickel affinity column was used and the flow through was applied to a size exclusion chromatography. The peak fraction was collected and concentrated to 5 mg/mL.
Dye fluorescence is quenched in aqueous environment and increases upon association of the dye with the hydrophobic parts of the unfolding protein. […] The inflection point of the curve represents the “melting” temperature of the protein (Tm) which is calculated numerically using the Boltzmann equation.
The thermal stability of the dog STING protein was measured in assay buffer containing 20 mM Tris, 150 mM NaCl at pH7.5. The assay uses 384-Well qPCR Plates (Catalog #781358, BRAND), Microseal® ‘B’ Adhesive Seals for PCR Plates (Catalog #MSB-1001, BIO-RAD) and was run on a CFX384 Real-Time System (Bio-Rad). A DMSO stock solution of SYPRO orange (SIGMA 55692-500UL) was prepared. Compound stock solutions (10 mM in DMSO) were diluted 1:2 in DMSO to an intermediate compound concentration of 5 mM and then further diluted 1:40 in assay buffer resulting in a compound concentration of 125 μM and 2.5% DMSO. Fluorescent dye stock solution (5000×SYPRO Orange) was then mixed with target protein and buffer to a concentration of 15 μM Protein and 25×SYPRO Orange. 2 μl of this protein-dye-mixture was added to 8 μl compound solution. Final volume was 10 μL. 3-6 well positions were used as negative control (protein with 2% DMSO). The plates were prepared for duplicate measurement and centrifuged for 2 min at 1000 g. In the measurement, 160 cycles of 0.5° C. were used (temperature ramp 15 s/cycle, 15° C. to 95° C.).
Final Assay concentrations for compound characterization were 100 μM compound, 3 μM target protein, 5×SYPRO Orange, and 2% DMSO in 10 μl. All dispensing steps were performed using a HamiltonStar pipetting robot (Hamilton).
Dissociation curves were processed in Bio-Rad CFX Manager. Peak type was set to “negative”. Compound codes for screen were assigned in the plate layout.
Two replicates of TM measurements were averaged, and the standard deviation was calculated. In cases of SD>1.5° C. the measurement was repeated.
The melting point (Tm) obtained for STING protein alone was subtracted from T obtained for protein incubated with ligand to generate ΔTm values.

Structure (SMILES): Cc1cccc2c(-c3cccc4nn(C)c(F)c34)nn(-c3ccc(N4C[C@@H]5C[C@H]4C[C@H]5C(=O)O)nc3)c12 (racemic) [Example 19, 2-(5-{3″-fluoro-2″,7-dimethyl-1H,2″H-[3,4″-biindazol]-1-yl}pyridin-2-yl)-2-azabicyclo[2.2.1]heptane-5-carboxylic acid]
- Delta TM: 34.3 °C

Structure (SMILES): Cc1cccc2c(-c3cccc4nn(C)c(F)c34)nn(-c3ccc(N4CC5CCC4CC5C(=O)O)nc3)c12 (single isomer, unassigned) [Example 20-1, 2-(5-{3'-fluoro-2',7-dimethyl-1H,2'H-[3,4'-biindazol]-1-yl}pyridin-2-yl)-2-azabicyclo[2.2.2]octane-5-carboxylic acid]
- Delta TM: 20.9 °C

Structure (SMILES): Cc1cccc2c(-c3cccc4nn(C)c(F)c34)nn(-c3ccc(N4CC5CCC4CC5C(=O)O)nc3)c12 (single isomer, unassigned) [Example 20-2, 2-(5-{3'-fluoro-2',7-dimethyl-1H,2'H-[3,4'-biindazol]-1-yl}pyridin-2-yl)-2-azabicyclo[2.2.2]octane-5-carboxylic acid]
- Delta TM: 22.6 °C

Structure (SMILES): Cc1cccc2c(-c3c(F)ccc4nn(C)cc34)nn(-c3ccc(N4CC5CCC4CC5C(=O)O)nc3)c12 (single isomer, unassigned) [Example 28-1]
- Delta TM: 26.6 °C

Structure (SMILES): Cc1cccc2c(-c3c(F)ccc4nn(C)cc34)nn(-c3ccc(N4CC5CCC4CC5C(=O)O)nc3)c12 (single isomer, unassigned) [Example 28-2]
- Delta TM: 25.9 °C

Structure (SMILES): Cc1cccc2c(-c3cc(F)cc4nn(C)cc34)nn(-c3ccc(N4C[C@@H]5C[C@H]4C[C@H]5C(=O)O)nc3)c12 (single isomer, unassigned) [Example 38-1]
- Delta TM: 24.8 °C

Structure (SMILES): Cc1cccc2c(-c3cc(F)cc4nn(C)cc34)nn(-c3ccc(N4C[C@H]5C[C@@H]4C[C@@H]5C(=O)O)nc3)c12 (single isomer, unassigned) [Example 38-2]
- Delta TM: 23.0 °C

Structure (SMILES): Cc1cccc2c(-c3c(F)cc(F)c4nn(C)cc34)nn(-c3ccc(N4CC5CCC4CC5C(=O)O)nc3)c12 (single isomer, unassigned) [Example 48-1]
- Delta TM: 23.9 °C

Structure (SMILES): Cc1cccc2c(-c3c(F)cc(F)c4nn(C)cc34)nn(-c3ccc(N4CC5CCC4CC5C(=O)O)nc3)c12 (single isomer, unassigned) [Example 48-2]
- Delta TM: 24.6 °C

Structure (SMILES): Cc1cccc2c(-c3ccc(F)c4nn(C)c(F)c34)nn(-c3ccc(N4C[C@@H]5C[C@H]4C[C@H]5C(=O)O)nc3)c12 (single isomer, unassigned) [Example 56-1]
- Delta TM: 33.0 °C

Structure (SMILES): Cc1cccc2c(-c3ccc(F)c4nn(C)c(F)c34)nn(-c3ccc(N4C[C@H]5C[C@@H]4C[C@@H]5C(=O)O)nc3)c12 (single isomer, unassigned) [Example 56-2]
- Delta TM: 33.0 °C

Structure (SMILES): Cc1cccc2c(-c3c(F)ccc4nn(C)cc34)nn(-c3ccc(N4CCOC(CC(=O)O)C4)nc3)c12 [Example 26-1, 2-[(2R)-4-(5-{5″-fluoro-2″,7-dimethyl-1H,2″H-[3,4″-biindazol]-1-yl}pyridin-2-yl)morpholin-2-yl]acetic acid]
- Delta TM: 31.0 °C

Structure (SMILES): Cc1cccc2c(-c3c(F)ccc4nn(C)cc34)nn(-c3ccc(N4CCOC(CC(=O)O)C4)nc3)c12 [Example 26-2, 2-[(2S)-4-(5-{5″-fluoro-2″,7-dimethyl-1H,2″H-[3,4″-biindazol]-1-yl}pyridin-2-yl)morpholin-2-yl]acetic acid]
- Delta TM: 32.0 °C

Structure (SMILES): CC(=O)N1CC2CCC1CN2c1ccc(-n2nc(-c3c(F)ccc4nn(C)cc34)c3cccc(C)c32)cn1 (centres unmarked) [Example 32]
- Delta TM: 31.0 °C

Structure (SMILES): Cc1cccc2c(-c3cc(F)cc4nn(C)cc34)nn(-c3ccc(N4CCC(C(=O)O)CC4)nc3)c12 [Example 33, 1-(5-{6″-fluoro-2″,7-dimethyl-1H,2″H-[3,4″-biindazol]-1-yl}pyridin-2-yl)piperidine-4-carboxylic acid]
- Delta TM: 22.5 °C

Structure (SMILES): Cc1cccc2c(-c3cc(F)cc4nn(C)cc34)nn(-c3ccc(N4CC[C@@H](CC(=O)O)C4)nc3)c12 [Example 35, 2-[(3S)-1-(5-{6″-fluoro-2″,7-dimethyl-1H,2″H-[3,4″-biindazol]-1-yl}pyridin-2-yl)pyrrolidin-3-yl]acetic acid]
- Delta TM: 22.5 °C

Structure (SMILES): Cc1cccc2c(-c3cc(F)cc4nn(C)cc34)nn(-c3ccc(N4CC[C@H](CC(=O)O)C4)nc3)c12 [Example 36, 2-[(3R)-1-(5-{6″-fluoro-2″,7-dimethyl-1H,2″H-[3,4″-biindazol]-1-yl}pyridin-2-yl)pyrrolidin-3-yl]acetic acid]
- Delta TM: 24.0 °C

Structure (SMILES): Cc1cccc2c(-c3cc(F)cc4nn(C)cc34)nn(-c3ccc(N4CCO[C@H](CC(=O)O)C4)nc3)c12 [Example 37-1, 2-[(2R)-4-(5-{6″-fluoro-2″,7-dimethyl-1H,2″H-[3,4″-biindazol]-1-yl}pyridin-2-yl)morpholin-2-yl]acetic acid]
- Delta TM: 16.0 °C

Structure (SMILES): Cc1cccc2c(-c3cc(F)cc4nn(C)cc34)nn(-c3ccc(N4CCO[C@@H](CC(=O)O)C4)nc3)c12 [Example 37-2, 2-[(2S)-4-(5-{6″-fluoro-2″,7-dimethyl-1H,2″H-[3,4″-biindazol]-1-yl}pyridin-2-yl)morpholin-2-yl]acetic acid]
- Delta TM: 18.0 °C

Structure (SMILES): Cc1cccc2c(-c3cc(F)cc4nn(C)cc34)nn(-c3ccc(N4CC5CCC4CC5C(=O)O)nc3)c12 (centres unmarked) [Example 39, 2-(5-{6″-fluoro-2″,7-dimethyl-1H,2″H-[3,4″-biindazol]-1-yl}pyridin-2-yl)-2-azabicyclo [2.2.2]octane-5-carboxylic acid]
- Delta TM: −0.3 °C

Structure (SMILES): CC(=O)N1CCN(c2ccc(-n3nc(-c4cc(F)cc5nn(C)cc45)c4cccc(C)c43)cn2)CC1 [Example 40, 1-[4-(5-{6″-fluoro-2″,7-dimethyl-1H,2″H-[3,4″-biindazol]-1-yl}pyridin-2-yl)piperazin-1-yl]ethan-1-one]
- Delta TM: 17.8 °C

Structure (SMILES): CC(=O)N1C[C@@H]2C[C@H]1CN2c1ccc(-n2nc(-c3cc(F)cc4nn(C)cc34)c3cccc(C)c32)cn1 [Example 41, 1-[(1S,4S)-5-(5-{6″-fluoro-2″,7-dimethyl-1H,2″H-[3,4″-biindazol]-1-yl}pyridin-2-yl)-2,5-diazabicyclo[2.2.1]heptan-2-yl]ethan-1-one]
- Delta TM: 16.0 °C

Structure (SMILES): CC(=O)N1C[C@H]2C[C@@H]1CN2c1ccc(-n2nc(-c3cc(F)cc4nn(C)cc34)c3cccc(C)c32)cn1 [Example 42, 1-[(1R,4R)-5-(5-{6″-fluoro-2″,7-dimethyl-1H,2″H-[3,4″-biindazol]-1-yl}pyridin-2-yl)-2,5-diazabicyclo[2.2.1]heptan-2-yl]ethan-1-one]
- Delta TM: 15.8 °C

Structure (SMILES): CC(=O)N1CC2CCC1CN2c1ccc(-n2nc(-c3cc(F)cc4nn(C)cc34)c3cccc(C)c32)cn1 (centres unmarked) [Example 43, 1-[5-(5-{6″-fluoro-2″,7-dimethyl-1H,2″H-[3,4″-biindazol]-1-yl}pyridin-2-yl)-2,5-diazabicyclo[2.2.2]octan-2-yl]ethan-1-one]
- Delta TM: 16.0 °C

Structure (SMILES): CC(=O)N1C[C@@H]2C[C@H]1CN2c1ccc(-n2nc(-c3c(F)cc(F)c4nn(C)cc34)c3cccc(C)c32)cn1 [Example 50, 1-[(1S,4S)-5-(5-{5″,7″-difluoro-2″,7-dimethyl-1H,2″H-[3,4″-biindazol]-1-yl}pyridin-2-yl)-2,5-diazabicyclo[2.2.1]heptan-2-yl]ethan-1-one]
- Delta TM: 25.0 °C

Structure (SMILES): CC(=O)N1CC2CCC1CN2c1ccc(-n2nc(-c3c(F)cc(F)c4nn(C)cc34)c3cccc(C)c32)cn1 (centres unmarked) [Example 52, 1-[5-(5-{5″,7″-difluoro-2″,7-dimethyl-1H,2″H-[3,4″-biindazol]-1-yl}pyridin-2-yl)-2,5-diazabicyclo [2.2.2]octan-2-yl]ethan-1-one]
- Delta TM: 25.8 °C
